# Reference: patent US8691195B2, “Peptide having activity of transforming growth factor and production method therefor” (Caregen Co., Ltd., priority 2009, dated 2014)
# Ends that are not written are not given here.
# Columns and labels:
# tyrosinase = assay: Tyrosinase activity in α-MSH-treated B16F10 cells (L-DOPA, absorbance at 405 nm); assay type: cell-based; settings: 4 days, FIG. 6
# Method: For verifying effects on skin whitening of the peptide synthesized in Example 1 and TGF-β, cells were treated with α-MSH and the inhibition in melanin generation was measured. B16F10 cells (Korean Cell Line Bank) were inoculated in a density of 1×10^5 cells/well and cultured in DMEM for 3 days. After cell adhesion was observed, medium was changed with a fresh medium containing 2% serum. Cells were incubated with each test group for 4 days: (a) no treatment as negative control; (b) 200 μg/ml α-MSH as a positive control; and (c) 200 μg/ml α-MSH plus 1 μg/ml or 10 μg/ml peptide 2. […] Subsequently, cells were harvested and treated with a lysis buffer to extract total proteins. The extracted proteins were quantitated by the BCA (bicinchonic acid) method. For each experiment group, 90 μl of protein solution and 10 μl of L-DOPA (L-3,4-dihydroxyphenylalanine; Sigma) were added and reacted for 30 min at 37° C. The resultants were analyzed to measure their absorbance values at 405 nm for evaluating tyrosinase activities.
# C57BL/6 Mice melanocytes = assay: Inhibition of melanin generation in α-MSH-treated melanocytes; assay type: cell-based; settings: 200 μg/ml α-MSH alone (positive control), 3 days, FIG. 4
# Method: To evaluate reduction of melanin pigment by the peptide 2 synthesized in Example 1, C57BL/6 Mice melanocytes cultured were incubated with α-MSH (melanocyte stimulating hormone; Sigma) and then with the peptide in the determined concentrations to measure inhibition effects on melanin generation. Mice melanocytes were cultured in DMEM (Dulbecco's modified Eagle's media; Sigma) supplemented with 10% FBS (fetal bovine serum; Sigma) at 37° C. under 5% CO2 conditions. Cells were cultured in a 24-well culture plate with a density of 1×10^5 cells/well and their adhesion to the plate was observed. Then, cells were incubated with each test group for 3 days: (a) a solvent as control; (b) 200 μg/ml α-MSH as a positive control; and (c) 200 μg/ml α-MSH plus 1 μg/ml or 10 μg/ml peptide 2. The test materials were prepared in such a manner that each component was dissolved in medium solvent and diluted at an equivalent rate to the aforementioned concentration using a mixed solvent of propylene glycol:ethanol:distilled water (5:3:2). After removing culture medium by centrifugation, melanin contents in each group could be observed with naked eye. […]
# More specifically, cells were washed with PBS (phosphate buffered saline) and treated with 1 N sodium hydroxide. The resultants were analyzed to measure their absorbance values at 400 nm. […]
# procollagen = assay: Procollagen production in NIH3T3 fibroblasts (Procollagen ELISA kit); assay type: cell-based; settings: NIH3T3, 1 μg/ml or 10 μg/ml, 72 hr, FIG. 9
# Method: (§1) NIH3T3 cells cultured for 48 hr were incubated with the peptide of the present invention with a concentration of 1 μg/ml or 10 μg/ml for 72 hr, respectively. The levels of procollagen and fibronectin, indicators to show the improvement in skin wrinkle, were examined. The quantification was performed using Procollagen ELISA kit (Takara, Japan) and Fibronectin ELISA kit (CHEMICON, USA).
# [1] = tested on: MITF (microphthalmia-associated transcription factor); assay: RT-PCR of MITF mRNA in α-MSH-treated B16F10 melanoma cells; assay type: cell-based; settings: 200 μg/ml α-MSH plus 10 μg/ml peptide, 4 days, FIG. 8
# Method: (§2) To more clearly check activities of TGF-mimicking peptide on skin whitening in α-MSH-treated B16F10 melanoma cells, mRNA level of TRP1 (tyrosinase-related protein-1), TRP2 and MITF (microphthalmia-associated transcription factor) was measured using RT-PCR.
# (§3) First, B16F10 cells were plated at a 6-well plate in a density of 1×10^5 cells/well and cultured for 3 days. After cell adhesion was observed, medium was changed with a fresh medium containing 2% serum. Cells were incubated with each test group for 4 days: (a) no treatment as negative control; (b) 200 μg/ml α-MSH as a positive control; and (c) 200 μg/ml α-MSH plus 10 μg/ml peptide 2.
# (§4) Subsequently, mRNA were extracted from cells and RT-PCR was carried out using primers for TRP1, TRP2 and MITF. The primer sequence is as follows: TRP1 F-primer, 5′-[…]-3′ and TRP1 R-primer, 5′-[…]-3′; TRP2 F-primer, 5′-[…]-3′ and TRP2 R-primer, 5′-[…]-3′; and MITF F-primer, 5′-[…]-3′ and MITF R-primer, 5′-[…]-3′.
# TRP2 = assay: RT-PCR of TRP2 mRNA in α-MSH-treated B16F10 melanoma cells; assay type: cell-based; settings: 200 μg/ml α-MSH plus 10 μg/ml peptide, 4 days, FIG. 8
# Method: as §2, §3, §4
# fibronectin = assay: Fibronectin production in NIH3T3 fibroblasts (Fibronectin ELISA kit); assay type: cell-based; settings: NIH3T3, 1 μg/ml or 10 μg/ml, 72 hr, FIG. 10
# Method: as §1
# B16F10 melanoma cells = assay: Melanosome changes / cell morphology in α-MSH-treated B16F10 melanoma cells; assay type: cell-based; settings: 200 μg/ml α-MSH plus 10 μg/ml peptide, 4 days, FIG. 7
# Method: as §3
# [2] = tested on: TRP1 (tyrosinase-related protein-1); assay: RT-PCR of TRP1 mRNA in α-MSH-treated B16F10 melanoma cells; assay type: cell-based; settings: 200 μg/ml α-MSH plus 10 μg/ml peptide, 4 days, FIG. 8
# Method: as §2, §3, §4
# [3] = Heat stability: residual activity by MTT assay after storage at 40° C.; assay type: physicochemical; settings: days 0-100, MTT assay, FIG. 3
# Method: To evaluate heat stability of the peptide 2 prepared in Example 1, the peptide 2 was dissolved in 50 mM Tris-HCl buffer (pH 8.0) to a concentration of 10 μg/ml. Recombinant TGF-β1 (Sigma) as control was produced from E. coli and dissolved in 50 mM Tris-HCl buffer (pH 8.0) at a concentration of 1 μg/ml. The prepared solutions were introduced into glass vials and kept to stand at 40° C. Afterwards, the solutions were taken on days 0, 1, 10, 25, 50, 75 and 100, and subjected to MTT assay (Scudiero, D. A., et al., Cancer Res., 48: 4827-4833 (1988)) to determine residual activities of the peptide and recombinant TGF-β1 (FIG. 3).
substance,measurement,setting,value
"α-MSH: melanocyte stimulating hormone (Sigma), inducer of melanin generation, positive control (SYSMEHFRWGKPV; ends and bridges not checked; UniProt P01189 138-150, looked up) [reference compound]",tyrosinase activity,tyrosinase; 200 μg/ml α-MSH only,highly elevated level
same,melanin content,C57BL/6 Mice melanocytes,strikingly increased
NH2-Gly-Arg-Gly-Asp-Tyr-Ile-Trp-Ser-Leu-Asp-Thr-Gln-OH (H-GRGDYIWSLDTQ-OH) [peptide 2],production of procollagen,procollagen,remarkably promote
same,mRNA level of MITF,[1],inhibit
same,reduction of tyrosinase activity,"tyrosinase; 200 μg/ml α-MSH plus 1 μg/ml or 10 μg/ml peptide, versus α-MSH only",about 30%
same,mRNA level of TRP2,TRP2,inhibit
same,level of fibronectin,fibronectin,increase
same,α-MSH-induced melanosomes,B16F10 melanoma cells,eliminated
same,mRNA level of TRP1,[2],inhibit
same,residual activity over time (heat stability),[3]; 10 μg/ml in 50 mM Tris-HCl buffer (pH 8.0),not to be decreased over time
"recombinant TGF-β1: Recombinant TGF-β1 (Sigma) produced from E. coli, used as control",residual activity over time (heat stability),[3]; 1 μg/ml in 50 mM Tris-HCl buffer (pH 8.0),sharply decreased with the lapse of time
